In patent US20100137266A1, “TREATMENT OF INSULIN RESISTANCE AND DISORDERS ASSOCIATED THEREWITH” (UNIVERSITETET I OSLO, priority 2006, published 2010):

Tests used:
Format in all cases: cell-based
human myotubes [1] = test: Lipogenesis and lipid distribution: acetate incorporation into FFA, DAG and TAG in myotubes; conditions: compared to control myotubes; for FFA synthesis from labeled acetate, increase / level of TAG from labeled acetate: 1 μM T0901317 or 10 μM 22-HC for 4 days; for level of DAG from labeled acetate: 1 μM T0901317 or 10 μM 22-R-HC for 4 days
Experimental: Human myoblasts were differentiated and treated with LXR ligands as described in FIG. 3. The cells were then incubated with [1-^14C]acetate (2 μCi/ml, 0.1 mM) for 4 h before levels of free fatty acids (FFA), diacylglycerol (DAG) and triacylgycerol (TAG) were determined. Results present means±SEM (n=5; independent muscle cell donors). **p<0.05 vs all other treatments, ^#p<0.05 vs T0901317. Human skeletal muscle cell cultures. […] The biopsies were obtained with informed consent and by approval of the National Committee for Research Ethics, Oslo, Norway. Muscle cell cultures free of fibroblasts were established by the method of Henry et al. (Diabetes, 44, 936-946, 1995), with minor modifications. Briefly, muscle tissue was dissected in Ham's F-10 media at 4° C., dissociated by three successive treatments with 0.05% trypsin/EDTA, and satellite cells were re-suspended in SkGM with 2% FCS and no added insulin. The cells were grown on culture wells coated with ECM gel (Apmis, 109, 726-734, 2001). At about 80% confluence, fusion of myoblasts into multinucleated myotubes was achieved by growth in DMEM with 2% FCS. All cells used were at passage 4 to 6. After 2 days in DMEM the cells were exposed to vehicle (0.1% DMSO), 1 μM T0901317, 10 μ[…]-hydroxycholesterol (22-R-HC) or 10 μ[…]-hydroxycholesterol (22-S-HC) for 4 days. Lipogenesis and lipid distribution. Myotubes were exposed to DMEM supplemented with [1-^14C]acetic acid (2 μCi/ml, 0.1 mM) for 4 h to study lipogenesis and acetate incorporation into TAG and diacylglycerol (DAG). Myotubes were harvested and analyzed as described above (Palmitate uptake and lipid distribution).

human myotubes [2] = test: Glucose uptake (2-deoxy-D-glucose) in myotubes; conditions: for basal glucose uptake, increase: myotubes from young, healthy subjects, exposure for 4 days, 1 μmol/l T0901317 or 10 μmol/l 22-HC
Source text: FIG. 7. Glucose transport is increased in human myotubes after chronic 22-S-HC treatment. Human myoblasts were allowed to differentiate for 2 days, and then exposed to 1 μmol/1 T0901317, 10 μmol/[…]) or 1, 2, 5 and 10 μmol/1 22-S-HC(S-HC) for 4 days. […] (A) Present means for glucose uptake±SEM (n=4). Basal level for control are 1.20±0.24 nmol/mg cell protein. (B) A representative dose-response curve for glucose uptake after 1, 2, 5 and 10 μmol/l 22-S-HC treatment (n=3). (C) Total RNA were reversely transcribed and analyzed by Real-Time RT-PCR. Results are normalized to levels of 36B4 and present means±SEM (n=4-6). Relative expressions of GLUT1, GLUT3, GLUT4, and hexokinase (HK)II, ^ap<0.05 vs control, ^dp<0.05 vs T0901317. Glucose Uptake. Skeletal biopsies were taken from M.vastus lateralis of healthy human donors and human myoblasts were allowed to differentiate for 4 days. On day 4, myotubes were exposed to T0901317 or 22-R-HC or 22-S-HC for another 4 days. […] Cells were solubilized by addition of 500 μl 0.1 mol/l NaOH. An aliquot (50 μl) was removed for protein determination (Bradford 1976) 300 μl was counted by liquid scintillation ([…] and Beck-Nielsen 2004).

[3] = tested on: rat FAS luciferase reporter; test: Transfection and luciferase assay with rat FAS promoter reporter in COS-1 cells co-transfected with RXRα and LXRα; conditions: COS-1 cells with RXRα and LXRα expression vectors; 1 μM T0901317 or 10 μM 22-HC for 48 h; vs unstimulated control cells
Experimental: FIG. 6. […] COS-1 cells were transient transfected with rat FAS luciferase reporter and co-transfected with β-galactosidase (internal control), RXRα and LXRα expression vectors. Medium was supplied with vehicle (0.1% DMSO), 1 μM T0901317, 10 μM 22-R-hydroxycholesterol (22-R-HC) or 10 μM 22-S— hydroxycholesterol (22-S-HC) for 48 h. The results represent one of two experiments performed with triplicate cell culture dishes and are presented as means±SD.
Transfection and Luciferase Assay. Monkey kidney COS-1 cells (ATCC no. CRL 1650) were grown in DMEM supplemented with 10% FBS. For reporter gene assays, COS-1 cells were transiently transfected with luciferase reporter containing sequences from −1594 to +67 bp of the rat FAS promoter (5 μg), with a known LXR responsive element (LXRE) located at −669 to −655 (kindly provided by Peter Tontonoz, Howard Hughes Medical Institute, California, USA) and co-transfected with pCMX-RXRα, pCMX-LXRα, (1 μg each), and pSV-β-galactosidase (3 μg) expression vectors with calcium phosphate precipitation. Total DNA concentration was adjusted to 12 μg with corresponding empty expression vectors and pGL3-basic vector. After 3 h of transfection, medium containing appropriate reagents was added for 48 h. Cells were harvested in 100 μl lysis buffer, and luciferase activities were measured in a TD-20/20 Luminometer (Turner Designs, Sunnyvale, Calif.) using the dual luciferase assay kit (Promega). Relative luciferase activity was normalized against β-galactosidase activity.

Compound	FFA synthesis from labeled acetate, increase (human myotubes [1])	level of TAG from labeled acetate (human myotubes [1])	level of DAG from labeled acetate (human myotubes [1])	basal glucose uptake, increase (human myotubes [2])	glucose uptake after pre-treatment of myotubes (summary statement) (human myotubes [2])	rat FAS promoter luciferase reporter activity [3]	reduction for DAG from labeled acetate (human myotubes [1]; 10 μM for 4 days)	basal glucose uptake, dose response (human myotubes [2]; 0, 1.0, 2.0, 5.0 and 10 μmol/l for 4 days)
CC(C)CC[C@@H](O)[C@@H](C)[C@H]1CC[C@H]2[C@@H]3CC=C4C[C@@H](O)CC[C@]4(C)[C@H]3CC[C@]12C [Example 22-R-HC, 22-R-hydroxycholesterol]	3 fold	slight increase	did not change	tended to increase	only a slight or no significant effect	unable to regulate the FAS gene promoter		
CC(C)CC[C@H](O)[C@@H](C)[C@H]1CC[C@H]2[C@@H]3CC=C4C[C@@H](O)CC[C@]4(C)[C@H]3CC[C@]12C [Example 22-S-HC, 22-S-hydroxycholesterol]	only tended to increase FFA synthesis slightly	tendency towards reduced TAG		2 fold	marked stimulation	seemed to reduce reporter activity	~50%	increased in a dose—dependent manner
O=S(=O)(c1ccccc1)N(CC(F)(F)F)c1ccc(C(O)(C(F)(F)F)C(F)(F)F)cc1 [Example T0901317]	2 fold	increased TAG	increased levels of DAG	no effect	only a slight or no significant effect	6.5 fold		
